Laboratory results published in publication PMC4972573 (Nature structural & molecular biology, 2013).

Biological target: GluK2 Y521C L783C (Rattus norvegicus, UniProt P42260, Y521C/L783C)
Assay: outside-out patch single-channel and macroscopic currents
Assay type: cell-based

Sequence of GluK2 Y521C L783C (P42260 32-908 Y521C/L783C): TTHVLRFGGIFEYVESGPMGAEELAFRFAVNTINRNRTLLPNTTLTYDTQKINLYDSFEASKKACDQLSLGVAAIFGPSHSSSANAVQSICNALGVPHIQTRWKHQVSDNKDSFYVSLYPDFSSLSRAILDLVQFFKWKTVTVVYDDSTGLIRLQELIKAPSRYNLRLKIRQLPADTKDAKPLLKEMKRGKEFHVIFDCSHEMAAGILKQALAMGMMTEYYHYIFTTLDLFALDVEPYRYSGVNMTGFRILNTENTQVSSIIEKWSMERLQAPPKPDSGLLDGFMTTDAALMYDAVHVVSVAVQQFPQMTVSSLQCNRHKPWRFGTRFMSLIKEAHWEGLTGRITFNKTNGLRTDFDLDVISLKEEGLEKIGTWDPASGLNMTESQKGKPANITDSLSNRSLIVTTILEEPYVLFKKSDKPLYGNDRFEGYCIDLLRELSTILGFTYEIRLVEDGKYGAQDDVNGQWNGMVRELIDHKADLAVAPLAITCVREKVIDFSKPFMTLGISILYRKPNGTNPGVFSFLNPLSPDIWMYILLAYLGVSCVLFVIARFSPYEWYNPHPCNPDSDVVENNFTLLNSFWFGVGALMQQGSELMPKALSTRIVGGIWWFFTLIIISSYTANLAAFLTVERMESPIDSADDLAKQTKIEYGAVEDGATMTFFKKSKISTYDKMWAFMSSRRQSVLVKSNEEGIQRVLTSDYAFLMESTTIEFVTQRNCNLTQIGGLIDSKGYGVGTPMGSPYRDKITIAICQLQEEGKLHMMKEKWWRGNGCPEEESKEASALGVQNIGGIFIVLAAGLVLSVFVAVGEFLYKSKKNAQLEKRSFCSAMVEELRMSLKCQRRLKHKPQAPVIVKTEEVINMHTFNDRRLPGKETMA

`N[C@@H](CCC(=O)O)C(=O)O` [L-Glu] was tested, and the “outside-out patch single-channel and macroscopic currents” value was “Unitary current events elicited by L-Glu acting on Y521C L783C channels”.
